Test results as given in ChEMBL document CHEMBL4732126, “Design, synthesis, and biodistribution studies of new analogues of marine alkaloids: Potent in vitro and in vivo fungicidal agents against Candida spp” (Eur J Med Chem, 2021).
Calls of active or inactive are those of the source. No cut-off for these calls is given here.

Key:
Candida albicans [1] = assay: Antifungal activity against Candida albicans ATCC 18804 assessed as reduction in fungal growth incubated for 48 hrs by broth microdilution method; type: functional
Candida albicans [2] = assay: Antifungal activity against Candida albicans isolate 2 assessed as reduction in fungal growth incubated for 48 hrs by broth microdilution method; type: functional
Candida albicans [3] = assay: Antifungal activity against Candida albicans isolate 4 assessed as reduction in fungal growth incubated for 48 hrs by broth microdilution method; type: functional
Candida albicans [4] = assay: Antifungal activity against Candida albicans isolate 7 assessed as reduction in fungal growth incubated for 48 hrs by broth microdilution method; type: functional
Candida albicans [5] = assay: Antifungal activity against Candida albicans isolate 10 assessed as reduction in fungal growth incubated for 48 hrs by broth microdilution method; type: functional
Candida albicans [6] = assay: Fungicidal activity against Candida albicans ATCC 18804 assessed as fungal killing incubated for 48 hrs followed by plating on SD agar plate; type: functional; conditions: read-out: MFC99.9
Candida albicans [7] = assay: Fungicidal activity against Candida albicans ATCC 10231 assessed as fungal killing incubated for 48 hrs followed by plating on SD agar plate; type: functional; conditions: read-out: MFC99.9
Pichia kudriavzevii [8] = assay: Fungicidal activity against Candida krusei ATCC 34135 assessed as fungal killing incubated for 48 hrs followed by plating on SD agar plate; type: functional; conditions: read-out: MFC99.9
Candida tropicalis [9] = assay: Fungicidal activity against Candida tropicalis ATCC 28707 assessed as fungal killing incubated for 48 hrs followed by plating on SD agar plate; type: functional; conditions: read-out: MFC99.9
Candida albicans [10] = assay: Fungicidal activity against Candida albicans isolate 2 assessed as fungal killing incubated for 48 hrs followed by plating on SD agar plate; type: functional; conditions: read-out: MFC99.9
Candida albicans [11] = assay: Fungicidal activity against Candida albicans isolate 10 assessed as fungal killing incubated for 48 hrs followed by plating on SD agar plate; type: functional; conditions: read-out: MFC99.9
Candida albicans [12] = assay: Fungicidal activity against Candida albicans isolate 11 assessed as fungal killing incubated for 48 hrs followed by plating on SD agar plate; type: functional; conditions: read-out: MFC99.9
Candida albicans [13] = assay: Fungicidal activity against Candida albicans ATCC 10231 assessed as reduction in fungal load at 7.8 ug/ml incubated for 4 hrs followed by inoculation on SD agar plate for 48 hrs by time-kill assay; type: functional; conditions: dose 7.8 µg/ml; time 52 hrs
Candida albicans [14] = assay: Fungicidal activity against Candida albicans ATCC 10231 assessed as reduction in fungal load at 7.8 to 15.6 ug/ml incubated for 8 hrs followed by inoculation on SD agar plate for 48 hrs by time-kill assay; type: functional, organism-based; conditions: dose 7.8-15.6 µg/ml, time 56.0 hrs
Pichia kudriavzevii [15] = assay: Disruption of cell membrane in Candida krusei ATCC 34135 assessed as increase in intracellular leakage at MIC incubated for 24 hrs by UV spectrophotometric analysis; type: cell-based
Candida albicans [16] = assay: Antifungal activity against Candida albicans ATCC 10231 assessed as reduction in fungal growth incubated for 48 hrs in presence of ergosterol by broth microdilution method; type: functional
Candida albicans [17] = assay: Antifungal activity against Candida albicans ATCC 10231 assessed as reduction in fungal growth incubated for 48 hrs in presence of sorbitol by broth microdilution method; type: functional
Nakaseomyces glabratus = assay: Antifungal activity against Candida glabrata ATCC 2001 assessed as reduction in fungal growth incubated for 48 hrs in presence of sorbitol by broth microdilution method; type: functional
Candida tropicalis [18] = assay: Antifungal activity against Candida tropicalis ATCC 28707 assessed as reduction in fungal growth incubated for 48 hrs in presence of ergosterol by broth microdilution method; type: functional
Candida albicans [19] = assay: Antifungal activity against Candida albicans ATCC 10231 assessed as inhibition of yeast to hypha morphological transition at 15.6 ug/ml measured upto 72 hrs by microscopic analysis; type: functional, organism-based; conditions: dose 15.6 µg/ml, time hrs <=72
[20] = Toxicity in Swiss mouse assessed as body weight at 1 mg/kg, ip measured after 24 hrs (reference value: 36.25 +/- 0.31 g); type: organism-based; conditions: in vivo
[21] = Toxicity in Swiss mouse assessed as relative kidney weight at 0.5 mg/kg, ip measured after 24 hrs (reference value: 14.91 +/- 0.99 g); type: organism-based; conditions: in vivo
[22] = Toxicity in Swiss mouse assessed as relative kidney weight at 1 mg/kg, ip measured after 24 hrs (reference value: 14.91 +/- 0.99 g); type: organism-based; conditions: in vivo
[23] = Toxicity in Swiss mouse assessed as relative kidney weight at 3 mg/kg, ip measured after 24 hrs (reference value: 14.91 +/- 0.99 g); type: organism-based; conditions: in vivo
[24] = Toxicity in Swiss mouse assessed as relative kidney weight at 10 mg/kg, ip measured after 24 hrs (reference value: 14.91 +/- 0.99 g); type: organism-based; conditions: in vivo
[25] = Toxicity in Swiss mouse assessed as relative kidney weight at 20 mg/kg, ip measured after 24 hrs (reference value: 14.91 +/- 0.99 g); type: organism-based; conditions: in vivo
[26] = Toxicity in Swiss mouse assessed as relative spleen weight at 10 mg/kg, ip measured after 24 hrs (reference value: 4.02 +/- 0.59 g); type: organism-based; conditions: in vivo
[27] = Toxicity in Swiss mouse assessed as relative spleen weight at 20 mg/kg, ip measured after 24 hrs (reference value: 4.02 +/- 0.59 g); type: organism-based; conditions: in vivo
[28] = Toxicity in Swiss mouse assessed as relative heart weight at 0.5 mg/kg, ip measured after 24 hrs (reference value: 4.75 +/- 0.60 g); type: organism-based; conditions: in vivo
[29] = Toxicity in Swiss mouse assessed as relative heart weight at 1 mg/kg, ip measured after 24 hrs (reference value: 4.75 +/- 0.60 g); type: organism-based; conditions: in vivo
[30] = Toxicity in Swiss mouse assessed as signs of toxicity at 0.5 to 10 mg/kg, ip measured upto 4 hrs; type: organism-based; conditions: in vivo, dose 0.5-10 mg/kg
Candida albicans [31] = assay: In vivo antifungal activity in Swiss mouse infected with Candida albicans ATCC 10231 assessed as reduction in fungal load in spleen at 0.5 mg/kg, ip administered at 2, 24 and 48 hrs post-infection and measured per gm of organ at 24 hrs post-last dose (reference value: 2.34); type: functional; conditions: time 72 hrs
[32] = Toxicity in Swiss mouse infected with Candida albicans ATCC 10231 assessed as effect on spleen weight at 10 mg/kg, ip administered at 2, 24 and 48 hrs post-infection and measured at 24 hrs after last dose; type: organism-based; conditions: in vivo, 72 h
[33] = Toxicity in Swiss mouse infected with Candida albicans ATCC 10231 assessed as effect on lung weight at 10 mg/kg, ip administered at 2, 24 and 48 hrs post-infection and measured at 24 hrs after last dose; type: organism-based; conditions: in vivo, 72 h
[34] = Toxicity in Swiss mouse infected with Candida albicans ATCC 10231 assessed as effect on kidney at 10 mg/kg, ip administered at 2, 24 and 48 hrs post-infection and measured at 24 hrs after last dose by macroscopic analysis; type: organism-based; conditions: in vivo, 72 h
[35] = Toxicity in Swiss mouse infected with Candida albicans ATCC 10231 assessed as effect on lung at 10 mg/kg, ip administered at 2, 24 and 48 hrs post-infection and measured at 24 hrs after last dose by macroscopic analysis; type: organism-based; conditions: in vivo, 72 h

## [Cl-].[N-]=[N+]=NCCCCCCCCCCCCOCCCc1ccc[n+](Cc2ccccc2)c1
Candida albicans [1]
  MIC: 7.8 µg/mL
Candida albicans [2]
  MIC: 7.8 µg/mL
Candida albicans [3]
  MIC: 1.95 µg/mL
Candida albicans [4]
  MIC: 1.95 µg/mL
Candida albicans [5]
  MIC: 15.6 µg/mL
Candida albicans [6]
  MFC: 31.2 µg/mL
Candida albicans [7]
  MFC: 7.8 µg/mL
Pichia kudriavzevii [8]
  MFC: 7.8 µg/mL
Candida tropicalis [9]
  MFC: 15.6 µg/mL
Candida albicans [10]
  MFC: 7.8 µg/mL
Candida albicans [11]
  MFC: 31.2 µg/mL
Candida albicans [12]
  MFC: 7.8 µg/mL
Candida albicans [13]
  log(activity): 3
Candida albicans [14]
  Activity: Active
Pichia kudriavzevii [15]
  Activity: Active
Candida albicans [16]
  MIC: 7.8 µg/mL
Candida albicans [17]
  MIC: 7.8 µg/mL
Nakaseomyces glabratus
  MIC: 7.8 µg/mL
Candida tropicalis [18]
  MIC: 15.6 µg/mL
Candida albicans [19]
  Activity: Active
[20]
  Activity: 37.87 g
[21]
  Activity: 14.41 g
[22]
  Activity: 13.58 g
[23]
  Activity: 14.73 g
[24]
  Activity: 15.52 g
[25]
  Activity: 15.79 g
[26]
  Activity: 2.85 g
[27]
  Activity: 2.93 g
[28]
  Activity: 5.75 g
[29]
  Activity: 5.39 g
[30]
  Activity: Non-Toxic
Candida albicans [31]
  Activity: 0 log10CFU
[32]
  Activity: Non-Toxic
[33]
  Activity: Non-Toxic
[34]
  Activity: Non-Toxic
[35]
  Activity: Non-Toxic
